Laboratory results as given in patent EP2540163A1, “Nematocide N-cyclopropyl-sulfonylamide derivatives” (Bayer CropScience AG, priority 2011, dated 2013).

experiment: logP by HPLC on reversed-phase column (C 18), EEC Directive 79/831 Annex V.A8, Method B (0.1% aqueous formic acid / acetonitrile, 40°C); type: physicochemical; settings: c18 reversed-phase hplc; LogP method B: HPLC reversed-phase C 18, 40°C, 0.1% aqueous formic acid / acetonitrile
Method: (§1) Calibration was carried out using unbranched alkan-2-ones (having 3 to 16 carbon atoms) with known logP values (determination of the logP values by the retention times using linear interpolation between two successive alkanones).

chromatographic logP | SMILES
2.6 | Cc1oncc1C(=O)N(C1CC1)S(=O)(=O)c1ccc(Cl)c(Cl)c1Cl [compound 604]
3.1 | Cc1cnn(C)c1C(=O)N(C1CC1)S(=O)(=O)c1cccc(Cl)c1Cl [compound 658]
3.6 | Cc1cnn(C)c1C(=O)N(C1CC1)S(=O)(=O)c1ccc(Cl)c(Cl)c1Cl [compound 659]
2.8 | Cn1ncc(I)c1C(=O)N(C1CC1)S(=O)(=O)c1cccc(Cl)c1Cl [compound 662]

More lines, now with the values behind:

SMILES | chromatographic logP
O=C(c1cccnc1Cl)N(C1CC1)S(=O)(=O)c1cccc(Cl)c1Cl [compound 645] | 3.2
O=C(c1cccnc1Cl)N(C1CC1)S(=O)(=O)c1ccc(Oc2ccccc2)cc1 [compound 646] | 3.7
O=C(c1cccnc1Cl)N(C1CC1)S(=O)(=O)c1ccc(Cl)c(Cl)c1Cl [compound 647] | 3.7
O=C(c1cccnc1F)N(C1CC1)S(=O)(=O)c1cccc(Cl)c1Cl [compound 649] | 2.4
Cn1ncc(I)c1C(=O)N(C1CC1)S(=O)(=O)c1ccc(Cl)c(Cl)c1Cl [compound 663] | 3.4

same assay, conditions: c18 reversed-phase hplc; LogP method B: HPLC, 40°C, 0.1% aqueous formic acid and acetonitrile, gradient 10% to 90% acetonitrile

chromatographic logP | SMILES
4.04 | COC(=O)C1(N(C(=O)c2c(C(F)(F)F)nn(C)c2F)S(=O)(=O)c2ccc(Cl)c(Cl)c2Cl)CC1 [compound 667]
4.1 | Cc1nn(C)c(F)c1C(=O)N(C1(c2ccccc2)CC1)S(=O)(=O)c1cccc(Cl)c1Cl [compound 670]

experiment: logP by HPLC on reversed-phase column (C 18), EEC Directive 79/831 Annex V.A8, Method A (0.1% aqueous phosphoric acid / acetonitrile, 43°C); type: physicochemical; settings: c18 reversed-phase hplc; LogP method A: HPLC reversed-phase C 18, 43°C, 0.1% aqueous phosphoric acid / acetonitrile
Method: as §1

chromatographic logP | SMILES
3.64 | Cc1ccsc1C(=O)N(C1CC1)S(=O)(=O)c1cccc(Cl)c1 [compound 13]
3.12 | Cc1ccsc1C(=O)N(C1CC1)S(=O)(=O)c1ccccc1Cl [compound 14]
4.07 | O=C(c1cc(Br)c(Br)s1)N(C1CC1)S(=O)(=O)c1ccccc1Cl [compound 15]
3.63 | CCOC(=O)c1[nH]c(C)c(C(=O)N(C2CC2)S(=O)(=O)c2ccc(Cl)cc2Cl)c1C [compound 32]
3.2 | Cc1nc(C(F)(F)F)c(C(=O)N(C2CC2)S(=O)(=O)c2ccccc2Cl)s1 [compound 59]
2.8 | Cc1ncc(C(=O)N(C2CC2)S(=O)(=O)c2cccc(Cl)c2)s1 [compound 60]
3.46 | Cc1ncc(C(=O)N(C2CC2)S(=O)(=O)c2ccc(Cl)c(C(F)(F)F)c2)s1 [compound 62]
3.33 | Cc1ncc(C(=O)N(C2CC2)S(=O)(=O)c2ccc(Cl)c(Cl)c2)s1 [compound 63]
2.91 | Cc1ncc(C(=O)N(C2CC2)S(=O)(=O)c2ccc(Cl)cc2Cl)s1 [compound 64]
3.46 | Cc1nc(C(=O)N(C2CC2)S(=O)(=O)c2ccc(Cl)c(Cl)c2)cs1 [compound 70]
3.03 | Cc1nc(C(=O)N(C2CC2)S(=O)(=O)c2ccc(Cl)cc2Cl)cs1 [compound 71]
2.34 | Cc1nn(C)c(F)c1C(=O)N(C1CC1)S(=O)(=O)c1ccccc1Cl [compound 180]
2.94 | Cc1nn(C)c(F)c1C(=O)N(C1CC1)S(=O)(=O)c1ccc(Cl)cc1Cl [compound 186]

Second part, the compound before the results:

SMILES | chromatographic logP
O=C(c1cc(Br)c(Br)o1)N(C1CC1)S(=O)(=O)c1ccccc1Cl [compound 1] | 3.58
Cc1occc1C(=O)N(C1CC1)S(=O)(=O)c1cccc(Cl)c1 [compound 3] | 3.27
Cc1occc1C(=O)N(C1CC1)S(=O)(=O)c1ccccc1Cl [compound 4] | 2.77
CCOC(=O)c1[nH]c(C)c(C(=O)N(C2CC2)S(=O)(=O)c2cccc(Cl)c2)c1C [compound 29] | 3.46
CCOC(=O)c1[nH]c(C)c(C(=O)N(C2CC2)S(=O)(=O)c2ccc(Cl)c(C(F)(F)F)c2)c1C [compound 31] | 4.08
Cc1nn(C)c(F)c1C(=O)N(C1CC1)S(=O)(=O)c1cccc(Cl)c1 [compound 176] | 2.82
Cc1nn(C)c(F)c1C(=O)N(C1CC1)S(=O)(=O)c1ccc(Cl)c(Cl)c1 [compound 178] | 3.35
Cn1cc(C(=O)N(C2CC2)S(=O)(=O)c2ccccc2Cl)c(C(F)(F)F)n1 [compound 200] | 2.71
